In patent US20140303092A1 (CHIMERIX, INC., priority 2011, published 2014):

Assay: Study HDP-CDV-201: safety and tolerability (adverse events, laboratory abnormalities, discontinuations)
Assay type: in vivo, human (adult allogeneic HSCT recipients)
Experimental: Clinical Studies of HDP-CDV were performed and described in detail in the following Examples. For example, HDP-CDV-201 is a placebo-controlled, dose-escalating trial in HSCT CMV (R+) recipients, evaluating the ability of HDP-CDV to prevent or control CMV infection was carried out. Five cohorts were established in which participants or subjects received either placebo or the HDP-CDV orally, in doses ranging from 40 mg weekly (QW) to 200 mg twice weekly (BIW). Subjects who were post-HSCT were enrolled at the time of engraftment and randomized to HDP-CDV or placebo (3 to 1 ratio) and received blinded therapy until approximately 100 day post-transplantation. HDP-CDV doses were 40 mg QW, 100 mg QW, 200 mg QW, 200 mg BIW and 100 mg BIW. Escalation to the next dose was decided by the data monitoring committee after review of the safety data from the previous Cohort. Subjects who developed CMV disease or CMV infection requiring pre-emptive therapy with local standard of care were discontinued from blinded therapy and followed for 4 weeks. Subjects who completed treatment with blinded therapy were followed for 8 weeks post-therapy.
Data from Study HDP-CDV-201 also provided characterization of the safety and tolerability profile of HDP-CDV when administered for the prevention or control of CMV infection in high risk (R^+) post-HSCT adult subjects.
The Safety population (SAFETY) included all randomized subjects who took at least one dose of study treatment. This population was used to summarize safety outcomes based on the treatment actually received, in cases where a subject was treated contrary to the randomization schedule.
The safety and tolerability profile of HDP-CDV, including subject demographics and Baseline characteristics; the AE profile; and laboratory abnormalities of interest were analyzed in the cohorts followed in this investigation.
Subjects completing the treatment period received a full course of study medication; those completing the entire study attended visits through 8 weeks of follow up. Subjects who discontinued treatment may have done so for protocol specified reasons (e.g. development of clinically significant CMV infection requiring preemptive treatment with excluded anti-CMV medications) or for other reasons (e.g., withdrawal, adverse events, loss to follow-up). The disposition of subjects in Study HDP-CDV-201 during the double-blind, placebo-controlled treatment period (through Week 11) is listed by dosing Cohort in TABLE 23.
Adverse events were examined by severity to ensure that all safety signals were identified in this study population. Because of the frequency of events in HSCT recipients, particular attention was given to evaluation of Grade 3 […], 4 (severe), and 5 (fatal) adverse events.
Only those preferred terms for which at least one Grade 3 or higher event was experienced in any treatment group are listed. Cytomegalovirus-related AEs are excluded from this analysis.
HDP-CDV is a lipid conjugate of CDV. Because CDV is known to have adverse effects on renal function and bone marrow, decreased GFR and persistent neutropenia were identified as AEs of special interest. Key renal and hematological (TABLE 30) laboratory parameters were measured and listed below by Study HDP-CDV-201 treatment groups. TABLE 30 includes abnormal levels of serum creatinine, neutrophils, platelets, WBCs, and hemoglobin and includes data at Screening and during the treatment period.
A common metric for unit based dosing of medications is by weight (mg/kg). When the distribution of weights was examined for all subjects participating in the study, the median was 78 kg and the lower 25th percentile weight was approximately 65 kg, which translates to a cut-off of ˜3 mg/kg for a 200 mg total weekly dose. Based upon this approach, a cut-off of 3 mg/kg was used to assess the frequency of diarrhea and associated GI AEs reported for the subjects in Cohorts 3 or 4a (TABLE 40).

CCCCCCCCCCCCCCCCOCCCOP(=O)(O)COC(CO)Cn1ccc(N)nc1=O (stereo not drawn) [HDP-CDV]
Abnormal ALT >3-5x ULN, Screening, subjects (Cohort 3, >3.0 mg/kg/wk): 0 | Abnormal ALT >5-10x ULN, Any Time Between Week 2 and Week 10, subjects (Cohort 3, >3.0 mg/kg/wk): 0 | Abnormal ALT >5-10x ULN, Screening, subjects (Cohort 3, >3.0 mg/kg/wk): 0 | Abnormal ALT >10-20x ULN, Any Time Between Week 2 and Week 10, subjects (Cohort 3, >3.0 mg/kg/wk): 0 | Abnormal ALT >10-20x ULN, Screening, subjects (Cohort 3, >3.0 mg/kg/wk): 0 | Abnormal ALT >20x ULN, Any Time Between Week 2 and Week 10, subjects (Cohort 3, >3.0 mg/kg/wk): 0 | Abnormal ALT >20x ULN, Screening, subjects (Cohort 3, >3.0 mg/kg/wk): 0 | Abnormal ALT >3-5x ULN, Any Time Between Week 2 and Week 10, subjects (Cohort 3, ≦3.0 mg/kg/wk): 3 (12.5%) | Abnormal ALT >3-5x ULN, Screening, subjects (Cohort 3, ≦3.0 mg/kg/wk): 0 | Abnormal ALT >5-10x ULN, Any Time Between Week 2 and Week 10, subjects (Cohort 3, ≦3.0 mg/kg/wk): 5 (20.8%) | Abnormal ALT >5-10x ULN, Screening, subjects (Cohort 3, ≦3.0 mg/kg/wk): 0 | Abnormal ALT >10-20x ULN, Any Time Between Week 2 and Week 10, subjects (Cohort 3, ≦3.0 mg/kg/wk): 0 | Abnormal ALT >10-20x ULN, Screening, subjects (Cohort 3, ≦3.0 mg/kg/wk): 0 | Abnormal ALT >20x ULN, Any Time Between Week 2 and Week 10, subjects (Cohort 3, ≦3.0 mg/kg/wk): 1 (4.2%) | Abnormal ALT >20x ULN, Screening, subjects (Cohort 3, ≦3.0 mg/kg/wk): 0 | Grade of hepatobiliary AE hepatomegaly, subject 4019 (Cohort 4): 1 | Grade of hepatobiliary AE hyperbilirubenemia, subject 4001 (Cohort 4): 2 | Grade of hepatobiliary AE hyperbilirubinemia, subject 4014 (Cohort 4): 4 | Grade of hepatobiliary AE hyperbilirubinemia, subject 4041 (Cohort 4): 1 | Grade of hepatobiliary AE jaundice, subject 4002 (Cohort 4): 1 | Grade of hepatobiliary AE worsening hyperbilirubinemia, subject 4004 (Cohort 4): 1 | Outcome of hepatobiliary AE hepatomegaly, subject 4019 (Cohort 4): recovered/resolved | Outcome of hepatobiliary AE hyperbilirubenemia, subject 4001 (Cohort 4): not recovered/not | Outcome of hepatobiliary AE hyperbilirubinemia, subject 4014 (Cohort 4): not recovered/not | Outcome of hepatobiliary AE hyperbilirubinemia, subject 4041 (Cohort 4): recovered/resolved | Outcome of hepatobiliary AE jaundice, subject 4002 (Cohort 4): not recovered/not | Outcome of hepatobiliary AE worsening hyperbilirubinemia, subject 4004 (Cohort 4): recovered/resolved | Relationship of hepatobiliary AE hepatomegaly, subject 4019 (Cohort 4): not related | Relationship of hepatobiliary AE hyperbilirubenemia, subject 4001 (Cohort 4): not related | Relationship of hepatobiliary AE hyperbilirubinemia, subject 4014 (Cohort 4): not related | Relationship of hepatobiliary AE hyperbilirubinemia, subject 4041 (Cohort 4): not related | Relationship of hepatobiliary AE jaundice, subject 4002 (Cohort 4): not related | Relationship of hepatobiliary AE worsening hyperbilirubinemia, subject 4004 (Cohort 4): not related | subjects discontinued due to neutropenia (Cohort 4): 0 subject(s) | ALT (Screening) >3 × ULN-5 × ULN, subjects (Cohort 4, 200 mg BIW): 2 (6.7%) | ALT (Screening) >5 × ULN-10 × ULN, subjects (Cohort 4, 200 mg BIW): 2 (6.7%) | ALT (Screening) >10 × ULN-20 × ULN, subjects (Cohort 4, 200 mg BIW): 0 | ALT (Screening) >20 × ULN, subjects (Cohort 4, 200 mg BIW): 0 | ALT (any time during therapy) >3 × ULN-5 × ULN, subjects (Cohort 4, 200 mg BIW): 4 (13.8%) | ALT (any time during therapy) >5 × ULN-10 × ULN, subjects (Cohort 4, 200 mg BIW): 6 (20.7%) | ALT (any time during therapy) >10 × ULN-20 × ULN, subjects (Cohort 4, 200 mg BIW): 2 (6.9%) | ALT (any time during therapy) >20 × ULN, subjects (Cohort 4, 200 mg BIW): 0 | AST (Screening) >3 × ULN-5 × ULN, subjects (Cohort 4, 200 mg BIW): 1 (3.3%) | AST (Screening) >5 × ULN-10 × ULN, subjects (Cohort 4, 200 mg BIW): 0 | AST (Screening) >10 × ULN-20 × ULN, subjects (Cohort 4, 200 mg BIW): 0 | AST (Screening) >20 × ULN, subjects (Cohort 4, 200 mg BIW): 0 | AST (any time during therapy) >3 × ULN-5 × ULN, subjects (Cohort 4, 200 mg BIW): 6 (20.7%) | AST (any time during therapy) >5 × ULN-10 × ULN, subjects (Cohort 4, 200 mg BIW): 0 | AST (any time during therapy) >10 × ULN-20 × ULN, subjects (Cohort 4, 200 mg BIW): 0 | AST (any time during therapy) >20 × ULN, subjects (Cohort 4, 200 mg BIW): 0 | Alkaline Phosphatase (Screening) >2.5-5.0 × ULN, subjects (Cohort 4, 200 mg BIW): 0 | Alkaline Phosphatase (Screening) >5.0-20.0 × ULN, subjects (Cohort 4, 200 mg BIW): 0 | Alkaline Phosphatase (Screening) >20.0 × ULN, subjects (Cohort 4, 200 mg BIW): 0 | Alkaline Phosphatase (Screening) >ULN-[…] ULN, subjects (Cohort 4, 200 mg BIW): 7 (23.3%) | Alkaline Phosphatase (any time during therapy) >2.5-5.0 × ULN, subjects (Cohort 4, 200 mg BIW): 0 | Alkaline Phosphatase (any time during therapy) >5.0-20.0 × ULN, subjects (Cohort 4, 200 mg BIW): 0 | Alkaline Phosphatase (any time during therapy) >20.0 × ULN, subjects (Cohort 4, 200 mg BIW): 0 | Alkaline Phosphatase (any time during therapy) >ULN-[…] ULN, subjects (Cohort 4, 200 mg BIW): 11 (37.9%) | GI AE Leading to Study Drug Discontinuation: Abdominal pain, subjects (Cohort 4, 200 mg BIW): 1 (3.3%) | GI AE Leading to Study Drug Discontinuation: Diarrhoea, subjects (Cohort 4, 200 mg BIW): 7 (23.3%) | GI AE Leading to Study Drug Discontinuation: Dyspepsia, subjects (Cohort 4, 200 mg BIW): 0 | GI AE Leading to Study Drug Discontinuation: Nausea, subjects (Cohort 4, 200 mg BIW): 1 (3.3%) | GI AE Leading to Study Drug Discontinuation: Vomiting, subjects (Cohort 4, 200 mg BIW): 0 | GI AEs Leading to Study Drug Discontinuation: Total subjects discontinued (Cohort 4, 200 mg BIW): 9 (30.0%) | Gastrointestinal AE Abdominal discomfort, subjects (Cohort 4, 200 mg BIW): 0 | Gastrointestinal AE Abdominal distention, subjects (Cohort 4, 200 mg BIW): 1 (3.3%) | Gastrointestinal AE Abdominal pain upper, subjects (Cohort 4, 200 mg BIW): 3 (10.0%) | Gastrointestinal AE Abdominal pain, subjects (Cohort 4, 200 mg BIW): 11 (36.7%) | Gastrointestinal AE Constipation, subjects (Cohort 4, 200 mg BIW): 3 (10.0%) | Gastrointestinal AE Diarrhoea, subjects (Cohort 4, 200 mg BIW): 21 (70.0%) | Gastrointestinal AE Diverticulum intestinal haemorragic, subjects (Cohort 4, 200 mg BIW): 0 | Gastrointestinal AE Dyspepsia, subjects (Cohort 4, 200 mg BIW): 1 (3.3%) | Gastrointestinal AE Dysphagia, subjects (Cohort 4, 200 mg BIW): 0 | Gastrointestinal AE Epigastric discomfort, subjects (Cohort 4, 200 mg BIW): 0 | Gastrointestinal AE Flatulence, subjects (Cohort 4, 200 mg BIW): 3 (10.0%) | Gastrointestinal AE GERD, subjects (Cohort 4, 200 mg BIW): 2 (6.7%) | Gastrointestinal AE Gastritis, subjects (Cohort 4, 200 mg BIW): 0 | Gastrointestinal AE Haematochezia, subjects (Cohort 4, 200 mg BIW): 0 | Gastrointestinal AE Haemorroids, subjects (Cohort 4, 200 mg BIW): 2 (6.7%) | Gastrointestinal AE Large intestinal ulcer, subjects (Cohort 4, 200 mg BIW): 0 | Gastrointestinal AE Nausea, subjects (Cohort 4, 200 mg BIW): 11 (36.7%) | Gastrointestinal AE Odynophagia, subjects (Cohort 4, 200 mg BIW): 1 (3.3%) | Gastrointestinal AE Oesophagitis, subjects (Cohort 4, 200 mg BIW): 0 | Gastrointestinal AE Retching, subjects (Cohort 4, 200 mg BIW): 0 | Gastrointestinal AE Vomiting, subjects (Cohort 4, 200 mg BIW): 8 (26.7%) | Hepatobiliary clinical AE Cholelithiasis, subjects (Cohort 4, 200 mg BIW): 0 | Hepatobiliary clinical AE Hepatomegaly, subjects (Cohort 4, 200 mg BIW): 1 (3.3%) | Hepatobiliary clinical AE Hyperbilirubinaemia, subjects (Cohort 4, 200 mg BIW): 5 (16.7%) | Hepatobiliary clinical AE Jaundice, subjects (Cohort 4, 200 mg BIW): 1 (3.3%) | Hepatobiliary clinical AE Liver injury, subjects (Cohort 4, 200 mg BIW): 1 (3.3%) | Intensity of Gastrointestinal AEs, Grade 1, subjects (Cohort 4, 200 mg BIW): 3 (10.0%) | Intensity of Gastrointestinal AEs, Grade 2, subjects (Cohort 4, 200 mg BIW): 13 (43.3%) | Intensity of Gastrointestinal AEs, Grade 3, subjects (Cohort 4, 200 mg BIW): 10 (33.3%) | Intensity of Gastrointestinal AEs, Grade 4, subjects (Cohort 4, 200 mg BIW): 0 | Intensity of Gastrointestinal AEs, Grade 5, subjects (Cohort 4, 200 mg BIW): 1 (3.3%) | Serum ALT level, Median fold increase from Baseline at Follow-up Week 1 (Cohort 4, 200 mg BIW): 1.87 fold | Serum ALT level, Median fold increase from Baseline at Follow-up Week 4 (Cohort 4, 200 mg BIW): 1.34 fold | Serum ALT level, Peak Median fold increase from Baseline (Cohort 4, 200 mg BIW): 3.55 fold | Subjects completed study (Cohort 4, 200 mg BIW): 6 (20.0%) n (%) | Total Bilirubin (Screening) >1-[…] ULN, subjects (Cohort 4, 200 mg BIW): 1 (3.3%) | Total Bilirubin (Screening) >1.5-3 × ULN, subjects (Cohort 4, 200 mg BIW): 0 | Total Bilirubin (Screening) >3-10 × ULN, subjects (Cohort 4, 200 mg BIW): 0 | Total Bilirubin (Screening) >10 × ULN, subjects (Cohort 4, 200 mg BIW): 0 | Total Bilirubin (any time during therapy) >1-[…] ULN, subjects (Cohort 4, 200 mg BIW): 3 (10.3%) | Total Bilirubin (any time during therapy) >1.5-3 × ULN, subjects (Cohort 4, 200 mg BIW): 1 (3.4%) | Total Bilirubin (any time during therapy) >3-10 × ULN, subjects (Cohort 4, 200 mg BIW): 1 (3.4%) | Total Bilirubin (any time during therapy) >10 × ULN, subjects (Cohort 4, 200 mg BIW): 0 | incidence of diarrhea (Cohort 4, 200 mg BIW): 70% | Abdominal pain leading to study drug withdrawal (Cohort 4, 200 mg BIW, N = 30): 1 (3.3%) | All AEs leading to withdrawal (Cohort 4, 200 mg BIW, N = 30): 18 (60.0%) | Diarrhoea leading to study drug withdrawal (Cohort 4, 200 mg BIW, N = 30): 7 (23.3%)
